# Reference: patent publication US11066379B2 (THE TEXAS A&M UNIVERSITY SYSTEM, priority 2018, dated 2021)
# How the values were obtained:
# [1] = tested on: human T lymphocytes; assay: Viability of human T lymphocytes (MTT assay, 48 h); type: cell-based; details: for cell toxicity to T-cells: 0.1 μM, in words
# Excerpt: (§1) The MTT (3-[4,5-dimethylthiazol-2-yl]-2,5-diphenyltetrazoliumbromide) assay was used to determine the cytotoxicity of gracilin derivatives in T lymphocytes (Burton, J. D. Methods Mol. Med., 2005, 110, 69-78) and SH-SY5Y cells and the protective effect of these compounds against H2O2 insult in neuroblastoma cells as previously described (Leiros, M., Alonso, E., Sanchez, J. A., Rateb, M. E., Ebel, R., Houssen, W. E., Jaspars, M., Alfonso, A. and Botana, L. M. ACS Chem. Neurosci., 2014, S, 71-80). Human T lymphocytes were cultured in 24 well plates at the concentration of 2.5×10^6 cells/mL and exposed to different compound concentrations (0.01, 0.1, 1 and 10 μM) added to the culture medium. Human T cells were maintained in the presence of the pure compound at 37° C. in humidified 5% CO2/95% air atmosphere for 48 h.
# Saponin was used as cellular death control and its absorbance was subtracted from the other data. After the incubation period with compounds, assay was performed. First cells were centrifuged (1500 rpm, 5 min, 4° C.). The pellets were resuspended in saline solution with MTT (250 μg/mL) and then incubated at 37° C. during 30 min. After washing off excess MTT twice with saline solution, cells were disaggregated with H2O and sonicated for 1 min and the absorbance of the colored formazan salt was measured at 595 nm in a spectrophotometer plate reader. All experiments were performed three times.
# [2] = tested on: Interleukin-2 (IL-2) production in human T lymphocytes; assay: Interleukin-2 release in Con A-stimulated human T lymphocytes (ELISA); type: cell-based
# Description: Then, cells were stimulated with Concanavalin A (Con A) at 50 μg/mL for 48 h to induce IL-2 release. The amount of IL-2 released to the culture medium was evaluated using Human IL-2 ELISA kit. Experiments were carried out four times.
# [3] = target: T1, active human CypA protein (Homo sapiens, UniProt P62937); assay: Binding to immobilized CypA by surface plasmon resonance (SPR); details: for affinity for CypA (association curves, KD) / fold increase in KD toward CypA compared to gracilin A: SPR; for affinity for CypA (association curves, KD): various concentrations; for affinity for CypA (association curves, KD) / immunosuppressive activity (SAR profile, FIG. 2): in words; for immunosuppressive activity (SAR profile, FIG. 2): CypA binding / IL-2 inhibition
# T1 construct: Active human CypA full-length protein was from Abcam; purchased Abcam
# T1 sequence (P62937 whole entry): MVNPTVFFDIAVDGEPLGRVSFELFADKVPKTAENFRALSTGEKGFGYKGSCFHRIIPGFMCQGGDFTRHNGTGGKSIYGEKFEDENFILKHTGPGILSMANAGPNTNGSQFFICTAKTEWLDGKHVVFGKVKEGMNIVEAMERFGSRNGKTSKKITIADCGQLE
# Description: Sensor surface activation and ligand immobilization were performed by using HBS-EP as running buffer at a flow rate of 5 μL/min and 25° C. CM5 sensor chips were used as surface where Cyp A or D was immobilized as ligand. The CM5 chip is a glass slide coated with a thin layer of gold with a matrix of carboxymethylated dextran covalently attached. The CM5 chip was activated using an amine coupling kit. […] After activation, the ligand, 100 μg/mL of active human CypA protein dissolved in sodium acetate 10 mM at pH 4.5 was added to be immobilized over a CM5 sensor chip. Finally ethanolamine-HCl was injected to deactivate the remaining active esters and to avoid non-specific binding. […] Once analytes were tested and interaction was observed, individual binding curves were analyzed by determining the kinetic constants of analytes-CypA binding, namely, the observed rate constant (Kobs), the association rate constant (Kass), the dissociation rate constant (Kdiss), and the kinetic equilibrium dissociation constant (KD). At equilibrium, by definition, […]. The pseudo-first order association rate constants Kobs (s^-1) were determined for each compound concentration by using the 1:1 Langmuir association model of BiaEvaluation software (BiaCore, Uppsala, Sweden). Then a representation of Kobs against the corresponding concentration of each compound was done. […] From the equation of these representations, Kass, M^-1 s^-1, gradient of the plot, and […]^-1, intercept of the plot was obtained. Within these two values, the kinetic equilibrium dissociation constant KD for each analyte-CypA binding was obtained. The duration of the sample injection was 2 min at 10 μL/min flow rate. Next, dissociation of bound molecules in HBS-EP buffer flow was studied. The bound drugs were removed from the chip surface before the next injection by adding 1 M Glycine-HCl at pH 2.5 for 1 min. The association phase was used to quantify the compound-CypA or D interactions. All experiments were performed four times.
# [4] = tested on: SH-SY5Y cells; assay: Cellular toxicity in SH-SY5Y cells (MTT, 24 h); type: cell-based; details: SH-SY5Y, 24 h incubation; read-out: IC50 (cellular toxicity)
# Excerpt: as §1
# (§2) SH-SY5Y cells were seeded in 96-well plates at a density of 2.5×10^5 cells/mL and allowed to adhere for 24 h. At first, cells were treated only with compounds at concentrations ranging from 10-0.01 μM for 24 h to determine their possible cytotoxic effects. Experiments were carried out three times. For neuroprotective experiments, cells were treated with compounds at non-toxic concentrations (1 μM→1 nM) and 150 μM H2O2 for 6 h. Briefly, cells were washed three times with saline solution and 200 μL of MTT (500 μg/mL) dissolved in saline buffer were added to each well. Following 1 h of incubation at 37° C., the cells were disaggregated with sodium dodecyl sulphate at 5%.
# Absorbance of formazan crystals was measured at 595 nm with a spectrophotometer plate reader. Saponin was used as death control and its absorbance was subtracted from the other data. All experiments were performed four times.
# [5] = tested on: SH-SY5Y cells; assay: Intracellular ROS levels (carboxy-H2DCFDA) after H2O2; type: cell-based, human; details: 150 μM H2O2 co-treatment 6 h
# Description: Intracellular levels of reactive oxygen species (ROS) were determined with carboxy-H2DCFDA (5-(and-6)-carboxy-2′,7′-dichlorodihydrofluorescein diacetate). This dye diffuses through the cellular membrane and is converted by cellular esterases to carboxy-H2DCFH (non-fluorescent). When carboxy-H2DCFH is oxidized by ROS, it becomes fluorescent (Halliwell, B. and Whiteman, M. Br. J. Pharmacol., 2004, 142, 231-255). Cells were seeded at a density of 2.5×10^5 cells/mL in 96-well plates and allowed to attach for 24 h. Following treatment with compounds at various concentrations (1 μM→1 nM) and 150 μM H2O2 for 6 h, SH-SY5Y cells were washed twice with serum-free culture medium. Then, carboxy-H2DCFDA 20 μM dissolved in serum-free culture medium was added to each well and the cells were incubated for 1 h at 37° C. After this incubation, the medium with the fluorescent dye was replaced with PBS and the plate was incubated for 30 min at 37° C. Fluorescence was read at 527 nm, with an excitation wavelength of 495 nm. All experiments were performed four times.
# [6] = tested on: SH-SY5Y cells; assay: Neuroprotection against H2O2 toxicity, cell viability by MTT; type: cell-based, human; details: 150 μM H2O2 co-treatment 6 h; 0.01, 0.1 and 1 μM
# Description: as §2, with “5%. Absorbance of formazan crystals was measured at 595 nm with a spectrophotometer plate reader. Saponin was used as death control and its absorbance was subtracted from the other data. All experiments were performed four times.” for “5%.”
compound,measurement,setting,value
"CC(=O)OC1CCC(OC(C)=O)O1 (mixture of isomers) [(±)-9, cis- and trans-2,5-tetrahydrofuran-2,5-diyl diacetate]",cell toxicity to T-cells,[1],did not show signs of cell toxicity
same,Inhibition of IL-2 production,[2]; in words,did not inhibit IL-2 production
same,"affinity for CypA (association curves, KD)",[3],no affinity
"CC(=O)O[C@H]1O[C@@H](OC(C)=O)[C@@H]2CCC(=O)C[C@H]12 [Compound 17, (1S,3R,3aS,7aR)-5-oxooctahydroisobenzofuran-1,3-diyl diacetate]",cell toxicity to T-cells,[1],did not show signs of cell toxicity
same,Inhibition of IL-2 production,[2]; in words,did not inhibit IL-2 production
same,"affinity for CypA (association curves, KD)",[3],no affinity
"CC(=O)OC1OC(OC(C)=O)[C@@H]2CCC=C[C@H]12 (stereo partly drawn) [Compound 18, (3aR,7aS)-1,3,3a,4,5,7a-hexahydroisobenzofuran-1,3-diyl diacetate]",cell toxicity to T-cells,[1],did not show signs of cell toxicity
same,Inhibition of IL-2 production,[2]; in words,did not inhibit IL-2 production
same,"affinity for CypA (association curves, KD)",[3],no affinity
"CC(=O)O[C@@H]1OC[C@H]2CC(=O)CC[C@H]21 [Compound 24, (1S,3aS,7aR)-5-oxooctahydroisobenzofuran-1-yl acetate]","immunosuppressive activity (SAR profile, FIG. 2)",[3],inactive
"CC1(C2=C[C@@H]3COC(=O)[C@@H]3CC2)CCCCC1 [Compound 26, (3aS,7aR)-5-(1-methylcyclohexyl)-3a,6,7,7a-tetrahydroisobenzofuran-1(3H)-one]","immunosuppressive activity (SAR profile, FIG. 2)",[3],inactive
"(0R,3S,3aR,7aS)-6-((R)-1,3,3-trimethyl-cyclohexyl)-1,3,3a,4,5,7a-hexahydroisobenzofuran-1,3-diyl diacetate [Compound 23d]",IC50,[4],1400 nM
same,impact on T-cell viability,[1],no impact on cell viability
same,Inhibition of IL-2 production,"[2]; 2 h pre-treatment at non-toxic concentration, Con A 50 μg/mL 48 h",46%
same,fold increase in KD toward CypA compared to gracilin A,[3],~1000 fold
"(1S,3R,3aS,7aR)-5-((S)-1,3,3-trimethylcyclohexyl)-1,3,3a,4,7,7a-hexahydroisoben-zofuran-1,3-diyl diacetate [Compound 23a]",IC50,[4],1400 nM
same,ROS levels,[5],diminishing ROS at two or three concentrations
same,decrease in cell viability,[1],~10%
same,fold increase in KD toward CypA compared to gracilin A,[3],~1000 fold
same,protection of cell viability against H2O2 insult,[6],protected cells against H2O2 insult at almost all concentrations
